pEC50, pIC50: −log10 of the molar value. Where two headings read alike, the source gives them in different places.
Experiments:
[1] = test system: Cullin-3 (CUL3) neddylation; assay: AlphaLISA assay for Cullin-3 (CUL3) neddylation in TF 1 cells; assay type: cell-based; details: 3 hours treatment
Summary of the method: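 TF 1 cells in unsupplemented IMDM treated with compound concentrations for 3 h, then lysed. CUL3 neddylation detected by AlphaLISA (biotinylated anti-NEDD8, anti-CUL3 acceptor beads overnight, streptavidin donor beads 1 h); normalized to vehicle (0%) and 1 μM DI-1548 (100%), IC50 from Hill fits.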

[2] = biological target: T1, DCN1 (DCUND1) protein PONY domain (Homo sapiens (Human), UniProt Q96GG9); assay: TR-FRET assay, DCN1 binding with FAM-labeled probe; details: for IC50: TR FRET IC50 1 hr (nM)
Summary of the method: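 Tb-DCN1 PONY domain (E. coli, biotin/streptavidin-Tb); FAM-labelled non-covalent inhibitor probe; TritonX buffer, 200 mM NaCl; 5 nM DCN1 + 20 nM probe or 0.31 nM DCN1 + 900 nM total probe; 0.1% DMSO; TR-FRET read 1, 5, 24 hrs.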

[3] = biological target: T1, DCN1 (DCUND1) protein PONY domain; assay: Off-rate measurement of reversible covalent molecules (jump dilution TR-FRET with Cy5 probe); assay type: binding
Text: A typical covalent compound is assumed to stay bound to a protein for at least the life of that protein in the cell. In reality, there is a range of how long a covalent compounds remains bound before a reverse reaction takes place. Thus, some covalent bonds can be labeled as reversible as their reverse reaction takes place in a measurable amount of time under physiological conditions. The assay capitalizes on the range of covalent binders by using a high affinity covalent binder as a probe to displace the more reversible binders in an adaptation of the jump dilution method.
In this version of the jump dilution method, the increase in covalent probe binding over time was measured through a TR-FRET reaction between the covalent probe and the biotinylated target protein.
The recombinant form of the DCN1 (DCUND1) protein PONY domain was produced using an E. coli expression system at Viva Biotech (China). The DCN1 protein was biotinylated (EZ sulfo-NHS-LC-biotin; Thermofisher) for labeling with streptavidin terbium (Tb) cryptate in the reaction. This biotinylated protein was used in two forms of the TR-FRET assay as described below.
The off-rate measurement is executed in two steps based on the jump dilution method. […] The greatest dilution allowed within the constraints of the assay was chosen. These factors allow a competitive advantage for the covalent probe to replace the test compound when that compound releases from the target protein. The actual measure is the rate of increased TR-FRET signal as the covalent probe replaces the test compound over time. […] The resulting time dependent curve of the TR-FRET signal is fit to the following equation:
Y=Y0+(Plateau−Y0)*(1−exp(−K*x))
K is the rate constant (1/unit of time). The residence time is defined as the inverse of K, the rate constant. The half-life is calculated as ln(2)/K.

DCN1 protein = DCN1 protein (Homo sapiens (Human), UniProt Q96GG9); assay: Intact Protein MS Analysis with the RapidFire-TOF System (covalent adduct formation); assay type: binding; details: MS Emax; 400 nM DCN1, 3 hours at room temperature
Summary of the method: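 Tag-cleaved human DCN1 (400 nM) expressed in E. coli, in 25 mM Tris-HCl, 200 mM NaCl, 1 mM DTT, was incubated with 11 compound concentrations for 3 h at room temperature and quenched with 0.2% formic acid. Intact-protein Q-TOF MS with deconvolution detected the compound adduct mass.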

[4] = test system: fetal hemoglobin gene HBG1; assay: HBG1 Nanostring Assay in CD34+ HSPC erythroid differentiation culture; assay type: cell-based, human; details: for pEC50: HBG1 induction, Day10 of erythroid differentiation; for Nanostring Ymax obs (%): relative to a control compound (C1)
Summary of the method: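 CD34+ HSPCs were dosed from day −2 (0.1% DMSO) through two-phase erythroid differentiation (EPO, transferrin, SCF, IL-3, insulin; IL-3 removed from day 7) at 37° C, 5% CO2. Day-10 lysates of 100K cells were hybridized at 67° C for 22 h for nCounter counting, normalized to ERCC and housekeeping controls. EC50 and Ymax were derived, with Ymax relative to a control compound.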

[5] = 24 hr after treatment with compound, read-out: TR FRET IC50 24 hr
[6] = read-out: TR FRET IC50 1 hr, 1 hr after treatment with compound
[7] = 1 hr after treatment with compound

T1 sequence (Q96GG9 60-248): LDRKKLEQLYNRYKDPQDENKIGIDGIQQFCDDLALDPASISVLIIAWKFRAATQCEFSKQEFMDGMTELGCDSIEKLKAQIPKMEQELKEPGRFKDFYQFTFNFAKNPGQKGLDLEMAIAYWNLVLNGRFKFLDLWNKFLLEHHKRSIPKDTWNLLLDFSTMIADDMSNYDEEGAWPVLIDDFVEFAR
Sequence of DCN1 protein (Q96GG9 whole entry): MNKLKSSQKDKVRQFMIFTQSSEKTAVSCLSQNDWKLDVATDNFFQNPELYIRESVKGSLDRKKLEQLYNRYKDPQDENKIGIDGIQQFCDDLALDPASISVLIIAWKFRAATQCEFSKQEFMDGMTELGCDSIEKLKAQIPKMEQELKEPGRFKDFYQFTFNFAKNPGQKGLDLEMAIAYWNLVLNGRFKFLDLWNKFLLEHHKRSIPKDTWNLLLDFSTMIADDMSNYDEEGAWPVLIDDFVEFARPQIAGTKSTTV

Compound | pIC50 ([1]; Homo sapiens, TF-1, 3 h) | pIC50 [2, 5] | pIC50 [2, 6] | Category ([3]; binding mode category from off-rate assay) | residence time ([3]; inverse of rate constant K, jump dilution TR-FRET) [min] | koff ([3]; jump dilution, Cy5 covalent probe 150 nM, TR-FRET) [s⁻¹] | half-life ([3]; ln(2)/K, jump dilution TR-FRET) [min] | % Adduct Formation (DCN1 protein) | pEC50 ([4]; Homo sapiens, 240 h) | Nanostring Ymax obs (%) [4] | pIC50 [1] | IC50 [2, 7] [nM] | pEC50 [4]
CCN1C(=O)[C@@H](NC(=O)c2cccc(C(F)(F)F)c2)[C@@H](c2ccc(F)cc2)c2c(C(=O)N3CCS(=O)(=O)C[C@H]3C#N)nn(C3CCOCC3)c21 (mixture of isomers) [Compound I-436] | ≥ 7.00 | ≥ 6.70 | ≥ 6.70 | reversible covalent | 76.7 | 0.000238 | 53.14 |  |  |  |  |  | 
CCN1C(=O)[C@@H](NC(=O)c2cccc(C(F)(F)F)c2)[C@@H](c2ccc(F)cc2)c2c(NC(=O)/C=C/C(F)(F)F)nn(-c3ccccc3)c21 [Compound I-125] | ≥ 7.00 | 6.00 to 6.70 | < 5.52 |  |  |  |  | ++ (MS Emax % adduct formation greater than 30.0 and less than or equal to 80.0) | 6.00 to 7.00 | +++ (Nanostring Ymax greater than 100.0) |  |  | 
CCN1C(=O)[C@@H](NC(=O)c2cccc(C(F)(F)F)c2)[C@@H](c2ccc(F)cc2)c2c(CN(C)C#N)nn(-c3ccccc3)c21 [Compound I-129] |  | ≥ 6.70 |  |  |  |  |  | +++ (MS Emax % adduct formation greater than 80.0 and less than or equal to 100.0) |  | + (Nanostring Ymax greater than or equal to 0.0 and less than or equal to 50.0) | 6.00 to 7.00 | 200 to 1000 | < 6.00
C=C(CC(=O)NCc1nn(-c2ccccc2)c2c1[C@@H](c1ccc(F)cc1)[C@H](NC(=O)c1cccc(C(F)(F)F)c1)C(=O)N2CC)C(=O)OC [Compound I-132] | 6.00 to 7.00 | ≥ 6.70 |  |  |  |  |  | ++ (MS Emax % adduct formation greater than 30.0 and less than or equal to 80.0) | < 6.00 | + (Nanostring Ymax greater than or equal to 0.0 and less than or equal to 50.0) |  | 200 to 1000 | 
CCN1C(=O)[C@@H](NC(=O)c2cccc(C(F)(F)F)c2)[C@@H](c2ccc(F)cc2)c2c(C(=O)NCC#N)nn(-c3ccccc3)c21 [Compound I-148] | 6.00 to 7.00 | 6.00 to 6.70 |  |  |  |  |  | +++ (MS Emax % adduct formation greater than 80.0 and less than or equal to 100.0) |  | + (Nanostring Ymax greater than or equal to 0.0 and less than or equal to 50.0) |  | 1000 to 3000 | 
C=C(C(=O)O)c1nn(-c2ccccc2)c2c1[C@H](c1ccc(F)cc1)[C@H](NC(=O)c1cccc(C(F)(F)F)c1)C(=O)N2CC [Compound I-153, 2-((4S,5S)-7-ethyl-4-(4-fluorophenyl)-6-oxo-1-phenyl-5-(3-(trifluoromethyl)benzamido)-4,5,6,7-tetrahydro-1H-pyrazolo[3,4-b]pyridin-3-yl)acrylic acid] | ≥ 7.00 | ≥ 6.70 |  |  |  |  |  | ++ (MS Emax % adduct formation greater than 30.0 and less than or equal to 80.0) | 6.00 to 7.00 | ++ (Nanostring Ymax greater than 50.0 and less than or equal to 100.0) |  | 200 to 1000 | 
C[C@@H](NC#N)c1nn(-c2ccccc2)c2c1[C@H](c1ccc(F)cc1)[C@H](NC(=O)c1cccc(C(F)(F)F)c1)C(=O)N2CCO [Compound I-274] | ≥ 7.00 | ≥ 6.70 | ≥ 6.70 |  |  |  |  | +++ (MS Emax % adduct formation greater than 80.0 and less than or equal to 100.0) |  | + (Nanostring Ymax greater than or equal to 0.0 and less than or equal to 50.0) |  |  | 
CCN1C(=O)[C@@H](NC(=O)c2cccc(C(F)(F)F)c2)[C@@H](c2ccc(F)cc2)c2c(C(=O)N3C[C@H](OC)C[C@H]3C#N)nn(C3CCOCC3)c21 [Compound I-358] | ≥ 7.00 | ≥ 6.70 | ≥ 6.70 |  |  |  |  | +++ (MS Emax % adduct formation greater than 80.0 and less than or equal to 100.0) | ≥ 7.00 | +++ (Nanostring Ymax greater than 100.0) |  |  | 
CCN1C(=O)[C@@H](NC(=O)c2cccc(C(F)(F)F)c2)[C@@H](c2ccc(F)cc2)c2c(C(=O)N3CC[C@H](OC)[C@H]3C#N)nn(C3CCOCC3)c21 [Compound I-359] | ≥ 7.00 | ≥ 6.70 | ≥ 6.70 |  |  |  |  | +++ (MS Emax % adduct formation greater than 80.0 and less than or equal to 100.0) | ≥ 7.00 | +++ (Nanostring Ymax greater than 100.0) |  |  | 
CCN1C(=O)[C@@H](NC(=O)c2cccc(C(F)(F)F)c2)[C@@H](c2ccc(F)cc2)c2c(C(=O)N3C[C@H](F)C[C@H]3C#N)nn(C3CCOCC3)c21 [Compound I-360] | ≥ 7.00 | ≥ 6.70 | ≥ 6.70 |  |  |  |  | +++ (MS Emax % adduct formation greater than 80.0 and less than or equal to 100.0) | ≥ 7.00 | +++ (Nanostring Ymax greater than 100.0) |  |  | 
CCN1C(=O)[C@@H](NC(=O)c2cccc(C(F)(F)F)c2)[C@@H](c2ccc(F)cc2)c2c(C(=O)N3CC(F)(F)C[C@H]3C#N)nn(C3CCOCC3)c21 [Compound I-361] | ≥ 7.00 | ≥ 6.70 | ≥ 6.70 |  |  |  |  | +++ (MS Emax % adduct formation greater than 80.0 and less than or equal to 100.0) | ≥ 7.00 | +++ (Nanostring Ymax greater than 100.0) |  |  | 
CCN1C(=O)[C@@H](NC(=O)c2cccc(C(F)(F)F)c2)[C@@H](c2ccc(F)cc2)c2c(C(=O)N3[C@H](C#N)C[C@H]4C[C@H]43)nn(C3COC3)c21 [Compound I-362, N-((4S,5S)-3-((1R,3S,5R)-3-cyano-2-azabicyclo[3.1.0]hexane-2-carbonyl)-7-ethyl-4-(4-fluorophenyl)-1-(oxetan-3-yl)-6-oxo-4,5,6,7-tetrahydro-1H-pyrazolo[3,4-b]pyridin-5-yl)-3-(trifluoromethyl)benzamide] | ≥ 7.00 | ≥ 6.70 | ≥ 6.70 |  |  |  |  | +++ (MS Emax % adduct formation greater than 80.0 and less than or equal to 100.0) | ≥ 7.00 | ++ (Nanostring Ymax greater than 50.0 and less than or equal to 100.0) |  |  | 
CCN1C(=O)[C@@H](NC(=O)c2cccc(C(F)(F)F)c2)[C@@H](c2ccc(F)cc2)c2c(C(=O)N3CCNC[C@@H]3C#N)nn(C3CCOCC3)c21 [Compound I-364] | ≥ 7.00 | ≥ 6.70 | ≥ 6.70 |  |  |  |  | +++ (MS Emax % adduct formation greater than 80.0 and less than or equal to 100.0) | ≥ 7.00 | ++ (Nanostring Ymax greater than 50.0 and less than or equal to 100.0) |  |  | 
CCN1C(=O)[C@@H](NC(=O)c2cccc(C(F)(F)F)c2)[C@@H](C2CC2)c2c(C(=O)N(C)CC#N)nn(C3CCOCC3)c21 [Compound I-374] | ≥ 7.00 | ≥ 6.70 |  |  |  |  |  | +++ (MS Emax % adduct formation greater than 80.0 and less than or equal to 100.0) | ≥ 7.00 | +++ (Nanostring Ymax greater than 100.0) |  | 200 to 1000 | 
CCN1C(=O)[C@@H](NC(=O)c2cccc(C(F)(F)F)c2)[C@@H](C2CC2)c2c(C(=O)N3CC(F)(F)C[C@H]3C#N)nn(C3CCOCC3)c21 [Compound I-378] | ≥ 7.00 | ≥ 6.70 | ≥ 6.70 |  |  |  |  | +++ (MS Emax % adduct formation greater than 80.0 and less than or equal to 100.0) | ≥ 7.00 | ++ (Nanostring Ymax greater than 50.0 and less than or equal to 100.0) |  |  | 

From patent publication US20250163057A1, “DCN-1 MODULATING COMPOUNDS AND METHODS OF USE THEREOF” (Cellarity, Inc., priority 2023, published 2025)
